Assay type in all cases: biochemical
In one test the target is T1, HDAC6 (Homo sapiens, UniProt Q9UBN7).
T1 sequence (Q9UBN7 1-1215): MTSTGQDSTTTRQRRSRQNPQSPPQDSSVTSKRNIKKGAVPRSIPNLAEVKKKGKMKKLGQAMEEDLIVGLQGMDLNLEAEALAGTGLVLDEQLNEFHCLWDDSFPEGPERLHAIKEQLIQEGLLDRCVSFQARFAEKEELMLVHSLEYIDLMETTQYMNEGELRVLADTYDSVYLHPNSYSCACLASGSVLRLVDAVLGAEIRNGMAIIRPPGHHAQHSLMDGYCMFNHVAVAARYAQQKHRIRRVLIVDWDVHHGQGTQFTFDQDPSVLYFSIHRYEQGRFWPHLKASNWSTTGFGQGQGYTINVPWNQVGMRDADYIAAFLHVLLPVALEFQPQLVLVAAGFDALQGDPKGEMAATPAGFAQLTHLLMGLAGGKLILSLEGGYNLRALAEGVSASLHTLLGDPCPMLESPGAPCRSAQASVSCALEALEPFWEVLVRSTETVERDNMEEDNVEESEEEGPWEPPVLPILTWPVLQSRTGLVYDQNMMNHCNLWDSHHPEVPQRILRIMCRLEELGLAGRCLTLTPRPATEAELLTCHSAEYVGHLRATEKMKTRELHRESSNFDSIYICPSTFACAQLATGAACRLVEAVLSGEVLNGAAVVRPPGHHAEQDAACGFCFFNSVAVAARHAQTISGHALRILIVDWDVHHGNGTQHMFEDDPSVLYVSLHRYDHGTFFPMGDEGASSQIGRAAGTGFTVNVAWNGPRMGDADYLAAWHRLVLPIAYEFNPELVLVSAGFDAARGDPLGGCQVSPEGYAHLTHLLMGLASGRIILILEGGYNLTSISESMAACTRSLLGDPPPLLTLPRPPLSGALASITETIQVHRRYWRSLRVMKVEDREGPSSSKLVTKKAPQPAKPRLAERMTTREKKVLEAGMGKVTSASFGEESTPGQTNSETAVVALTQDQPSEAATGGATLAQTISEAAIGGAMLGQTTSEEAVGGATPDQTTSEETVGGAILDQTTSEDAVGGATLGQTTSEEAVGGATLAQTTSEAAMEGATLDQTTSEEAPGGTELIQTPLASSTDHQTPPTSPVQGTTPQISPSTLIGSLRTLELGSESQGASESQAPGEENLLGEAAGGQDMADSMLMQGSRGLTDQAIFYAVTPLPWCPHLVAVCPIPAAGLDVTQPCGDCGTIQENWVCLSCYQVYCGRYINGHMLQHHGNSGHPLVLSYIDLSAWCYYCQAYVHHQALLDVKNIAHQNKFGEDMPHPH
In words: HDAC assay from Reaction Biology, fluorogenic substrate. Also on record: purchased Reaction Biology. To be noted: 10-dose response curve; read-out: Compound IC50 HDAC6. On the procedure:
(§1) Compounds 1 and 3 were tested in a HDAC assay from Reaction Biology® against 10 different HDACs.
(§2) Base Reaction buffer: 50 mM Tris-HCl, pH8.0, 137 mM NaCl, 2.7 mM KCl, and 1 mM MgCl2,
(§3) Add fresh: 1 mg/ml BSA, 1% DMSO
(§4) Fluorogenic HDAC General Substrate (HDAC1, HDAC2, HDAC3, HDAC6, HDAC10, and HDAC11): 50 μM, Arg-His-Lys-Lys(Ac)-AMC
• (HDAC8 only substrate: 50 μM, Arg-His-Lys(Ac)-Lys(Ac))-AMC Class2A Substrate (HDAC4, HDAC5, HDAC7, and HDAC9): Boc-Lys(trifluoroacetyl)-AMC For SIRTs 1-3, general Class1 HDAC substrate and 500 μM NAD+ For SIRT5, Ac-Lys-succ and 500 μM NAD+ Reaction Procedure Deacetylation Step • 1. Delivered 2× enzyme in wells of reaction plate except in the control wells and added buffer to control wells. • 2. Delivered compounds in 100% DMSO into the enzyme mixture by Acoustic technology (Echo550; nanoliter range). Spin down and pre-incubation. • 3. Delivered 2× Substrate Mixture (Fluorogenic HDAC Substrate and co-factor if applicable) in all reaction wells to initiate the reaction. Spin and shake. • 4. Incubated for 30 min for Class 2A, 1 hr for HDAC1, 2, 3, and 6, and 2 hr for the rest of HDACs and SIRTs at 30° C. with seal. Development Step • 5. […] The fluorescence that was generated was detected with excitation (Ex) at […] and emission (Em) at 460 nM by the EnVision Multilabel Plate Reader (PerkinElmer®, Santa Clara, CA, USA). • 7. […]

The next test addresses T2, HDAC8 (Homo sapiens, UniProt Q9BY41).
T2 construct: purchased Reaction Biology
T2 sequence (Q9BY41 1-377): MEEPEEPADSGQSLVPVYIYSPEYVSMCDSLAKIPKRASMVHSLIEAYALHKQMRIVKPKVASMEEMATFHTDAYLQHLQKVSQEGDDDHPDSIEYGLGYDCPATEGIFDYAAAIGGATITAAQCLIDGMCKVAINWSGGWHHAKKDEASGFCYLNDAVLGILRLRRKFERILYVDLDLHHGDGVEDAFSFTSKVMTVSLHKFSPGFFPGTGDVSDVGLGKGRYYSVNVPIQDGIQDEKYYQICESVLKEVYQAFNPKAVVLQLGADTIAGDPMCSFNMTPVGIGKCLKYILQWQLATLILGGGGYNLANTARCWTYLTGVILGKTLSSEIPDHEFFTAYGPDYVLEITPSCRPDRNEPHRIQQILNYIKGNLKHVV
In words: HDAC assay from Reaction Biology, HDAC8 substrate. To be noted: 10-dose response curve; read-out: Compound IC50 HDAC8. On the procedure: as §1, §2, §3
(§5) • (HDAC8 only substrate: 50 μM, Arg-His-Lys(Ac)-Lys(Ac))-AMC Class2A Substrate (HDAC4, HDAC5, HDAC7, and HDAC9): Boc-Lys(trifluoroacetyl)-AMC For SIRTs 1-3, general Class1 HDAC substrate and 500 μM NAD+ For SIRT5, Ac-Lys-succ and 500 μM NAD+ Reaction Procedure Deacetylation Step • 1. Delivered 2× enzyme in wells of reaction plate except in the control wells and added buffer to control wells. • 2. Delivered compounds in 100% DMSO into the enzyme mixture by Acoustic technology (Echo550; nanoliter range). Spin down and pre-incubation. • 3. Delivered 2× Substrate Mixture (Fluorogenic HDAC Substrate and co-factor if applicable) in all reaction wells to initiate the reaction. Spin and shake. • 4. Incubated for 30 min for Class 2A, 1 hr for HDAC1, 2, 3, and 6, and 2 hr for the rest of HDACs and SIRTs at 30° C. with seal. Development Step • 5. Added Developer with Trichostatin A (or Nicotinamide for SIRTs) to stop the reaction and to generate fluorescent color. • 6. The fluorescence that was generated was detected with excitation (Ex) at […] and emission (Em) at 460 nM by the EnVision Multilabel Plate Reader (PerkinElmer®, Santa Clara, CA, USA). • 7. […]

Another test addresses T3, HDAC5 (Homo sapiens, UniProt Q9UQL6).
T3 construct: purchased Reaction Biology
In words: HDAC assay from Reaction Biology, Class2A substrate. To be noted: 10-dose response curve; read-out: Compound IC50 HDAC5. On the procedure:
as §1, §2, §3, §5

The next test concerns the target T4, HDAC2 (Homo sapiens, UniProt Q92769).
T4 construct: purchased Reaction Biology
Kind of test: HDAC assay from Reaction Biology, fluorogenic substrate. To be noted: 10-dose response curve; read-out: Compound IC50 HDAC2. Here is the method:
as §1, §2, §3, §4
(§6) • (HDAC8 only substrate: 50 μM, Arg-His-Lys(Ac)-Lys(Ac))-AMC Class2A Substrate (HDAC4, HDAC5, HDAC7, and HDAC9): Boc-Lys(trifluoroacetyl)-AMC For SIRTs 1-3, general Class1 HDAC substrate and 500 μM NAD+ For SIRT5, Ac-Lys-succ and 500 μM NAD+ Reaction Procedure Deacetylation Step • 1. Delivered 2× enzyme in wells of reaction plate except in the control wells and added buffer to control wells. • 2. Delivered compounds in 100% DMSO into the enzyme mixture by Acoustic technology (Echo550; nanoliter range). Spin down and pre-incubation. • 3. Delivered 2× Substrate Mixture (Fluorogenic HDAC Substrate and co-factor if applicable) in all reaction wells to initiate the reaction. Spin and shake. • 4. Incubated for 30 min for Class 2A, 1 hr for HDAC1, 2, 3, and 6, and 2 hr for the rest of HDACs and SIRTs at 30° C. with seal. Development Step • 5. Added Developer with Trichostatin A (or Nicotinamide for SIRTs) to stop the reaction and to generate fluorescent color. • 6. The fluorescence that was generated was detected with excitation (Ex) at […] and emission (Em) at 460 nM by the EnVision Multilabel Plate Reader (PerkinElmer®, Santa Clara, CA, USA). • 7. IC50 values, presented in Table 1, were derived from a 10-dose response curve.

Another test concerns the target T5, HDAC1 (Homo sapiens, UniProt Q13547).
T5 construct: purchased Reaction Biology
The description is as above. The note with it: 10-dose response curve; read-out: Compound IC50 HDAC1. Here is the method:
as §1, §2, §3, §4, §6

The next test deals with T6, HDAC3 (Homo sapiens, UniProt O15379).
T6 construct: purchased Reaction Biology
T6 sequence (O15379 whole entry): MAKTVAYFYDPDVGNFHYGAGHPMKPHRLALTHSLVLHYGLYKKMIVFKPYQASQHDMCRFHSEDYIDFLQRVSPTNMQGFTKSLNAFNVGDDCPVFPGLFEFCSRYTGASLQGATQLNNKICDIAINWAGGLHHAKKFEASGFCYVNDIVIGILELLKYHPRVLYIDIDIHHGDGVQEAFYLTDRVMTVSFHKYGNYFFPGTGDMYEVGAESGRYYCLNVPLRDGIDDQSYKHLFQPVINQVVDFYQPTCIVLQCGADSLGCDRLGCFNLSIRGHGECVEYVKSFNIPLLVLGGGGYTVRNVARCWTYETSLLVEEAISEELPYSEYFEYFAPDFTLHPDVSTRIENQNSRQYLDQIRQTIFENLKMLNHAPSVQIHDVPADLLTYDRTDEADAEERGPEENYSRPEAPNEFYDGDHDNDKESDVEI
T6 sequence (Q9Y618 395-489 partner limits assumed): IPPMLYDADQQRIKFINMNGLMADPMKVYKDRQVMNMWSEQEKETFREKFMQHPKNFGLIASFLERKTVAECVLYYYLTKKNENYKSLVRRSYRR
The description is as above. The note with it: 10-dose response curve; read-out: Compound IC50 HDAC3. Here is the method:
as §1, §2, §3, §4, §6

T5 sequence (Q13547 whole entry): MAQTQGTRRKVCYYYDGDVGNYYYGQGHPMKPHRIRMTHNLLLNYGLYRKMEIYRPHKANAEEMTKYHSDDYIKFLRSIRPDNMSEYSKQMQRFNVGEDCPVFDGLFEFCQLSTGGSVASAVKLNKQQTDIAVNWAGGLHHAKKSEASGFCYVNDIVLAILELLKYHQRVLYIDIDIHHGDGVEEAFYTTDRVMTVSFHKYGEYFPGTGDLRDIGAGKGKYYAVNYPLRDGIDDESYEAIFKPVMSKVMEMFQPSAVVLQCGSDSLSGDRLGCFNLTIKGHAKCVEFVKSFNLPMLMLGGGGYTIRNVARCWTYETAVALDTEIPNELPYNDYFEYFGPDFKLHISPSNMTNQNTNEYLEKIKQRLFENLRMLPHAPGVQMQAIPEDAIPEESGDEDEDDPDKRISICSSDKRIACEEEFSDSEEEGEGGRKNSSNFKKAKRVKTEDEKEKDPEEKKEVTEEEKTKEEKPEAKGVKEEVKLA
T3 sequence (Q9UQL6 whole entry): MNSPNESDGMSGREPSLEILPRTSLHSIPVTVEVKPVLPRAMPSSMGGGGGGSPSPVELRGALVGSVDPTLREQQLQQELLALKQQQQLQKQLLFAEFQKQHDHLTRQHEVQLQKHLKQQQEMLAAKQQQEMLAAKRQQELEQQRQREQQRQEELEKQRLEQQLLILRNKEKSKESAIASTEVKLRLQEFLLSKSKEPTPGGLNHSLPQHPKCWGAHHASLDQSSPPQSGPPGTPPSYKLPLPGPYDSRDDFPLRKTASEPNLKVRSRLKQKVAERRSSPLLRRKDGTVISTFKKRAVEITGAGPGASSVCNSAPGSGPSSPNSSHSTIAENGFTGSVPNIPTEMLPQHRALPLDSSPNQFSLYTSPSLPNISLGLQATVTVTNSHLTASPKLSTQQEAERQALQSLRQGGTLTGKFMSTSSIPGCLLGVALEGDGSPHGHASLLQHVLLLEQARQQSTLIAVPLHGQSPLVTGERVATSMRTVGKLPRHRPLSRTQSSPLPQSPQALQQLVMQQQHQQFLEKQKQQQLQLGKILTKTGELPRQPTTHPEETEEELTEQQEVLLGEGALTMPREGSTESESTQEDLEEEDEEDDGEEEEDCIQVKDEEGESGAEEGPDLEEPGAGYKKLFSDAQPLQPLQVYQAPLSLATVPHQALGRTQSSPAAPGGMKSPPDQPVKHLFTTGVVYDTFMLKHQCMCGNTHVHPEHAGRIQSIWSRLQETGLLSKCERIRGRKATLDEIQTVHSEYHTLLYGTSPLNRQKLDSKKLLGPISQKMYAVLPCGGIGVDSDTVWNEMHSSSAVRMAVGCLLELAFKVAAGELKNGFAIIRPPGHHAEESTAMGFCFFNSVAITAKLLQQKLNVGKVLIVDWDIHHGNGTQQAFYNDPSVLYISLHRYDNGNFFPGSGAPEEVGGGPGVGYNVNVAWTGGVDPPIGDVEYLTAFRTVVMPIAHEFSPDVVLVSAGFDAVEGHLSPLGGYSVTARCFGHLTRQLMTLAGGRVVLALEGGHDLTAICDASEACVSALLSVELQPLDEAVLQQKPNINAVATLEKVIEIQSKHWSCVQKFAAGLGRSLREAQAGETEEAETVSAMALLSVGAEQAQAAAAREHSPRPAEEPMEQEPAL
T4 sequence (Q92769 whole entry): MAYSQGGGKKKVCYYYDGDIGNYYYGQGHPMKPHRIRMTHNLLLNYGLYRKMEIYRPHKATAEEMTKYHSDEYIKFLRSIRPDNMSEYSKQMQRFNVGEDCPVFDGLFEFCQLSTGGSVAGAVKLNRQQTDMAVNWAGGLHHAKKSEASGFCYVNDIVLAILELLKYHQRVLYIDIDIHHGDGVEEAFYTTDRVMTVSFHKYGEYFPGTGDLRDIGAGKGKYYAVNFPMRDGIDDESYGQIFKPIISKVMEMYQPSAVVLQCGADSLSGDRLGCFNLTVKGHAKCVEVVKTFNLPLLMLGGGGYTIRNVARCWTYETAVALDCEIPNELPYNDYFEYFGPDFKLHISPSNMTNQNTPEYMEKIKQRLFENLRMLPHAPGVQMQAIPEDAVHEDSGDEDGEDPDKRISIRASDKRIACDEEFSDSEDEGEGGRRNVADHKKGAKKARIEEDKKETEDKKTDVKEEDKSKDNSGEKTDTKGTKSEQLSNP

In general, IC50 refers to the concentration that gives 50% inhibition. With `CN(C(=O)CCCNc1cccc2c1C(=O)N(C1CCC(=O)NC1=O)C2=O)c1ccc(NC(=O)CCCCCCC(=O)NO)cc1` (stereo not drawn) [Compound 1, N^1-(4-(4-((2-(2,6-dioxopiperidin-3-yl)-1,3-dioxoisoindolin-4-yl)amino)-N-methylbutanamido)phenyl)-N^8-hydroxyoctanediamide], the IC50 at HDAC6 was found to be 48.5 nM; at HDAC8 it was 621 nM; on HDAC5, 5750 nM; on HDAC2, 2470 nM; at HDAC1, 1040 nM; at HDAC3, 1440 nM.

On to `CN(C(=O)CCCCCCCNc1cccc2c1C(=O)N(C1CCC(=O)NC1=O)C2=O)c1ccc(NC(=O)CCCCCCC(=O)NO)cc1` (stereo not drawn) [Compound 3, N^1-(4-(8-((2-(2,6-dioxopiperidin-3-yl)-1,3-dioxoisoindolin-4-yl)amino)-N-methyloctanamido)phenyl)-N^8-hydroxyoctanediamide], for which the IC50 was determined as 40.1 nM on HDAC6; 400 nM at HDAC8; 7830 nM at HDAC5; 14400 nM on HDAC2; 4410 nM at HDAC1; 3430 nM at HDAC3.

Source of the values: patent publication US12569563B2, “Selective HDAC6 degraders and methods of use thereof” (DANA-FARBER CANCER INSTITUTE, INC., priority 2019, dated 2026).
